What was measured:
Type in all cases: biochemical
[1] = target: T1, human Lck enzyme (Homo sapiens, UniProt P06239); test: Lck enzyme inhibitory activity (time-resolved fluorometry, biotinylated peptide phosphorylation); conditions: biotinylated peptide phosphorylation, read-out: LCK_IC50
T1 construct: purchased Carna Biosciences, Inc. 08-170
Experimental: (§1) 3. Lck Enzyme Inhibitory Activity Lck inhibitory activity was determined based on activity of inhibiting phosphorylation reaction of a biotinylated peptide (EGPWLEEEEEAYGWMDF) using a human Lck enzyme (manufactured by Carna Biosciences, Inc., cat 08-170). The phosphorylated biotinylated peptide was detected by time-resolved fluorometry using an anti-phosphorylated tyrosine antibody conjugated to europium cryptate, and streptavidin conjugated to XL665, an allophycocyanin derivative. The 50% inhibitory concentration (IC50) was calculated from the inhibition rate relative to the control group without containing the test substance.

[2] = target: T2, human Src enzyme (Homo sapiens, UniProt P12931); test: Src enzyme inhibitory activity (time-resolved fluorometry, biotinylated peptide phosphorylation); conditions: biotinylated peptide phosphorylation, read-out: SRC_IC50
T2 construct: purchased Carna Biosciences, Inc. 08-173
T2 sequence (P12931 whole entry): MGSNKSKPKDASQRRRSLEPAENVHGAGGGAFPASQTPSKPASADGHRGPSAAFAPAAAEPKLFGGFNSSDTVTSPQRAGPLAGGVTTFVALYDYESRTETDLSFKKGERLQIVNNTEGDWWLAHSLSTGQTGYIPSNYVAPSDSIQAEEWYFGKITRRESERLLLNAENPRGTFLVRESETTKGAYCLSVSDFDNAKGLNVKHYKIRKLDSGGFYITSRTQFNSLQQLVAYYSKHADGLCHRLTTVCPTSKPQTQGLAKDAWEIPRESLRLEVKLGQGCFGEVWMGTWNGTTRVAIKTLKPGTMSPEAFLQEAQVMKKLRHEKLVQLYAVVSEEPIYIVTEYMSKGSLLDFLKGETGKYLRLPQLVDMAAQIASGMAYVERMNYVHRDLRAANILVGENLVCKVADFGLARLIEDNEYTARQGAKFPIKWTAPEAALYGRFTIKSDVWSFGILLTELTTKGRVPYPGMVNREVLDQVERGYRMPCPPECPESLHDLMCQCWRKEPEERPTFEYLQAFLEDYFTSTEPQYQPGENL
Experimental: as §1, with “2. Src” for “3. Lck”, “Src” for “Lck”, “08-173).” for “08-170).”

[3] = target: T3, human Yes1 enzyme (Homo sapiens, UniProt P07947); test: Yes1 enzyme inhibitory activity (time-resolved fluorometry, biotinylated peptide phosphorylation); conditions: biotinylated peptide phosphorylation, read-out: YES_IC50
T3 construct: made in house
T3 sequence (P07947 whole entry): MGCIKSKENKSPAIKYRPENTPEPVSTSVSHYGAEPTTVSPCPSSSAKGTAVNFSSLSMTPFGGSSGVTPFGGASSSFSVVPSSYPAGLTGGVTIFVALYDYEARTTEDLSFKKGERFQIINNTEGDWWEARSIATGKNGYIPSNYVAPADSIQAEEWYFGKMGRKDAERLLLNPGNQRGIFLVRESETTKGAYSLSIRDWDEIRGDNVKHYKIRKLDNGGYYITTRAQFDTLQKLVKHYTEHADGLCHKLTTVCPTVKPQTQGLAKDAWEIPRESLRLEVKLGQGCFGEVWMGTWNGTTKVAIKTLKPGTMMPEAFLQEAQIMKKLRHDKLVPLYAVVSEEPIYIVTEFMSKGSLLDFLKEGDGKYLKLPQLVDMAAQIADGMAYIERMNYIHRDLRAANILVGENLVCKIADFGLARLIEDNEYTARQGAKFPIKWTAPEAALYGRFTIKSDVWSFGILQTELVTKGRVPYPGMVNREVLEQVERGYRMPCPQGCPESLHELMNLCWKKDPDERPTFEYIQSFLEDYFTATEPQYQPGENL
Experimental: as §1, with “1. Yes1” for “3. Lck”, “Yes1” for “Lck”, “prepared using a baculovirus expression system.” for “(manufactured by Carna Biosciences, Inc., cat 08-170).”

T1 sequence (P06239 whole entry): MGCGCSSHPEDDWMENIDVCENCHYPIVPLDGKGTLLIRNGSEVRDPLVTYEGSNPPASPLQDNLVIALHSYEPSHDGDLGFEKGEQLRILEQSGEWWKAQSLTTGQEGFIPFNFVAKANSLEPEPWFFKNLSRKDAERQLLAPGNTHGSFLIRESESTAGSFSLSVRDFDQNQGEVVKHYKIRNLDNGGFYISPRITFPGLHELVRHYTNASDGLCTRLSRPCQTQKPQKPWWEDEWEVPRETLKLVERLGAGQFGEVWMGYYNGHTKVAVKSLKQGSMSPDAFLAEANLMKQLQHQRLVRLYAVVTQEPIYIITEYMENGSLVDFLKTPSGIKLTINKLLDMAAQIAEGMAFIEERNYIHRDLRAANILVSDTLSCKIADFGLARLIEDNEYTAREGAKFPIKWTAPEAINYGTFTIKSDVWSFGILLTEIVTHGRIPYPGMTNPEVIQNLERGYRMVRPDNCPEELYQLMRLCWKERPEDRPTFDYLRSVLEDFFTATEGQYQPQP

Row | Compound | IC50 [1] [nM] | IC50 [2] [nM] | IC50 [3] [nM]
1 | Cc1cc(Oc2c(F)cccc2F)ncc1-n1ncc(C(=O)c2cc3cc(OC(F)F)c(C4CCN(C(=O)OC(C)(C)C)CC4)cc3[nH]2)c1N [Example 4-1-012, tert-butyl 4-[2-[5-amino-1-[6-(2,6-difluorophenoxy)-4-methylpyridin-3-yl]pyrazole-4-carbonyl]-5-(difluoromethoxy)-1H-indol-6-yl]piperidine-1-carboxylate] | 39 | 90 | 34
2 | Cc1cc(Oc2c(F)cccc2F)ncc1-n1ncc(C(=O)c2cc3cc(OCC(F)F)c(N4CCOCC4)cc3[nH]2)c1N [Example 4-1-016, [5-amino-1-[6-(2,6-difluorophenoxy)-4-methylpyridin-3-yl]pyrazol-4-yl]-[5-(2,2-difluoroethoxy)-6-morpholin-4-yl-1H-indol-2-yl]methanone] | 7.5 | 14 | 2.1
3 | Cc1cc(Oc2cccc(F)c2F)ccc1-n1ncc(C(=O)c2cc3cc(C4CCN(C(C)C)CC4)c(F)cc3[nH]2)c1N [Example 4-2-002, [5-amino-1-[4-(2,3-difluorophenoxy)-2-methylphenyl]pyrazol-4-yl]-[6-fluoro-5-(1-propan-2-ylpiperidin-4-yl)-1H-indol-2-yl]methanone] | 3.7 | 3.5 | 0.89
4 | Cc1cc(Oc2cccc(Cl)c2)ccc1-n1ncc(C(=O)c2cc3cc(C4CCN(C(C)C)CC4)c(F)cc3[nH]2)c1N [Example 4-2-003, [5-amino-1-[4-(3-chlorophenoxy)-2-methylphenyl]pyrazol-4-yl]-[6-fluoro-5-(1-propan-2-ylpiperidin-4-yl)-1H-indol-2-yl]methanone] | 2.1 | 6.4 | 1.4
5 | CC(C)N1CCC(c2cc3cc(C(=O)c4cnn(-c5ccc(Oc6cccc(F)c6F)cc5)c4N)[nH]c3cc2F)CC1 [Example 4-2-004, [5-amino-1-[4-(2,3-difluorophenoxy)phenyl]pyrazol-4-yl]-[6-fluoro-5-(1-propan-2-ylpiperidin-4-yl)-1H-indol-2-yl]methanone] | 2.3 | 7.5 | 0.93
6 | CC(C)N1CCC(c2cc3cc(C(=O)c4cnn(-c5ccc(Oc6cccc(Cl)c6)cc5)c4N)[nH]c3cc2F)CC1 [Example 4-2-005, [5-amino-1-[4-(3-chlorophenoxy)phenyl]pyrazol-4-yl]-[6-fluoro-5-(1-propan-2-ylpiperidin-4-yl)-1H-indol-2-yl]methanone] | 5 | 20 | 1.5
7 | CC(C)N1CCC(c2cc3cc(C(=O)c4cnn(-c5ccc(Oc6cccc(F)c6)cc5)c4N)[nH]c3cc2F)CC1 [Example 4-2-006, [5-amino-1-[4-(3-fluorophenoxy)phenyl]pyrazol-4-yl]-[6-fluoro-5-(1-propan-2-ylpiperidin-4-yl)-1H-indol-2-yl]methanone] | 3.3 | 12 | 1.3
8 | CC(C)N1CCC(c2cc3cc(C(=O)c4cnn(-c5ccc(Oc6cccc(F)c6F)cc5F)c4N)[nH]c3cc2F)CC1 [Example 4-2-007, [5-amino-1-[4-(2,3-difluorophenoxy)-2-fluorophenyl]pyrazol-4-yl]-[6-fluoro-5-(1-propan-2-ylpiperidin-4-yl)-1H-indol-2-yl]methanone] | 3.6 | 45 | 0.91
9 | CC(C)N1CCC(c2cc3cc(C(=O)c4cnn(-c5ccc(Oc6ccccc6Cl)cc5F)c4N)[nH]c3cc2F)CC1 [Example 4-2-008, [5-amino-1-[4-(2-chlorophenoxy)-2-fluorophenyl]pyrazol-4-yl]-[6-fluoro-5-(1-propan-2-ylpiperidin-4-yl)-1H-indol-2-yl]methanone] | 2.5 | 5.4 | 1.1

The remaining lines, values ahead:

Row | IC50 [1] [nM] | IC50 [2] [nM] | IC50 [3] [nM] | Compound
10 | 3.4 | 21 | 0.52 | COc1cc2cc(C(=O)c3cnn(-c4ccc(Oc5ccccc5F)cc4C)c3N)[nH]c2cc1NS(C)(=O)=O [Example 4-1-004, N-[2-[5-Amino-1-[4-(2-fluorophenoxy)-2-methylphenyl]pyrazole-4-carbonyl]-5-methoxy-1H-indol-6-yl]methanesulfonamide]
11 | 7.8 | 63 | 1 | COc1cc2cc(C(=O)c3cnn(-c4ccc(Oc5cccc(F)c5F)cc4C)c3N)[nH]c2cc1NS(C)(=O)=O [Example 4-1-005, N-[2-[5-amino-1-[4-(2,3-difluorophenoxy)-2-methylphenyl]pyrazole-4-carbonyl]-5-methoxy-1H-indol-6-yl]methanesulfonamide]
12 | 11 | 74 | 1.8 | COc1cc2cc(C(=O)c3cnn(-c4c(C)cc(Oc5ccccc5F)cc4F)c3N)[nH]c2cc1NS(C)(=O)=O [Example 4-1-006, N-[2-[5-amino-1-[2-fluoro-4-(2-fluorophenoxy)-6-methylphenyl]pyrazole-4-carbonyl]-5-methoxy-1H-indol-6-yl]methanesulfonamide]
13 | 7.5 | 61 | 1.1 | COc1cc2cc(C(=O)c3cnn(-c4c(C)cc(Oc5ccccc5)cc4F)c3N)[nH]c2cc1NS(C)(=O)=O [Example 4-1-007, N-[2-[5-amino-1-(2-fluoro-6-methyl-4-phenoxyphenyl)pyrazole-4-carbonyl]-5-methoxy-1H-indol-6-yl]methanesulfonamide]
14 | 4 | 52 | 0.69 | COc1cc2cc(C(=O)c3cnn(-c4cnc(Oc5ccccc5F)cc4C)c3N)[nH]c2cc1NS(C)(=O)=O [Example 4-1-008, N-[2-[5-amino-1-[6-(2-fluorophenoxy)-4-methylpyridin-3-yl]pyrazole-4-carbonyl]-5-methoxy-1H-indol-6-yl]methanesulfonamide]
15 | 4.5 | 59 | 1.1 | COc1cc2cc(C(=O)c3cnn(-c4cnc(Oc5c(F)cccc5F)cc4C)c3N)[nH]c2cc1NS(C)(=O)=O [Example 4-1-009, N-[2-[5-amino-1-[6-(2,6-difluorophenoxy)-4-methylpyridin-3-yl]pyrazole-4-carbonyl]-5-methoxy-1H-indol-6-yl]methanesulfonamide]
16 | 25 | 46 | 1.1 | COc1cc2cc(C(=O)c3cnn(-c4cnc(Oc5ccccc5Cl)cc4C)c3N)[nH]c2cc1NS(C)(=O)=O [Example 4-1-010, N-[2-[5-amino-1-[6-(2-chlorophenoxy)-4-methylpyridin-3-yl]pyrazole-4-carbonyl]-5-methoxy-1H-indol-6-yl]methanesulfonamide]
17 | 41 | 170 | 5.5 | COc1cc2cc(C(=O)c3cnn(-c4cnc(Oc5cccc(Cl)c5)cc4C)c3N)[nH]c2cc1NS(C)(=O)=O [Example 4-1-011, N-[2-[5-amino-1-[6-(3-chlorophenoxy)-4-methylpyridin-3-yl]pyrazole-4-carbonyl]-5-methoxy-1H-indol-6-yl]methanesulfonamide]
18 | 1.3 | 2.6 | 0.45 | COc1cc2[nH]c(C(=O)c3cnn(-c4ccc(Oc5ccccc5F)cc4C)c3N)cc2cc1NS(C)(=O)=O [Example 4-1-013, N-[2-[5-amino-1-[4-(2-fluorophenoxy)-2-methylphenyl]pyrazole-4-carbonyl]-6-methoxy-1H-indol-5-yl]methanesulfonamide]
19 | 1.4 | 5.8 | 0.36 | COc1cc2[nH]c(C(=O)c3cnn(-c4cnc(Oc5ccccc5F)cc4C)c3N)cc2cc1NS(C)(=O)=O [Example 4-1-014, N-[2-[5-amino-1-[6-(2-fluorophenoxy)-4-methylpyridin-3-yl]pyrazole-4-carbonyl]-6-methoxy-1H-indol-5-yl]methanesulfonamide]
20 | 10 | 14 | 1 | Cc1cc(Oc2ccccc2F)ccc1-n1ncc(C(=O)c2cc3cc(OCC(F)F)c(N4CCOCC4)cc3[nH]2)c1N [Example 4-1-015, [5-amino-1-[4-(2-fluorophenoxy)-2-methylphenyl]pyrazol-4-yl]-[5-(2,2-difluoroethoxy)-6-morpholin-4-yl-1H-indol-2-yl]methanone]
21 | 4.9 | 100 | 3.1 | Cc1cc2cc(C(=O)c3cnn(-c4cnc(Oc5c(F)cccc5F)cc4C)c3N)[nH]c2cc1NS(=O)(=O)C1CC1 [Example 4-1-017, N-[2-[5-amino-1-[6-(2,6-difluorophenoxy)-4-methylpyridin-3-yl]pyrazole-4-carbonyl]-5-methyl-1H-indol-6-yl]cyclopropanesulfonamide]
22 | 3.1 | 4.1 | 1 | Cc1cc(Oc2ccccc2F)ccc1-n1ncc(C(=O)c2cc3cc(C4CCN(C(C)C)CC4)c(F)cc3[nH]2)c1N [Example 4-2-001, [5-amino-1-[4-(2-fluorophenoxy)-2-methylphenyl]pyrazol-4-yl]-[6-fluoro-5-(1-propan-2-ylpiperidin-4-yl)-1H-indol-2-yl]methanone]

— patent US10479780B2, “Aminopyrazole derivatives” (Chugai Seiyaku Kabushiki Kaisha, priority 2015, dated 2019)
